Format in all cases: biochemical
One assay addresses T1, ST6Gal 1 (Homo sapiens, UniProt P15907).
T1 construct: purchased R&D Systems
T1 sequence (P15907 1-406): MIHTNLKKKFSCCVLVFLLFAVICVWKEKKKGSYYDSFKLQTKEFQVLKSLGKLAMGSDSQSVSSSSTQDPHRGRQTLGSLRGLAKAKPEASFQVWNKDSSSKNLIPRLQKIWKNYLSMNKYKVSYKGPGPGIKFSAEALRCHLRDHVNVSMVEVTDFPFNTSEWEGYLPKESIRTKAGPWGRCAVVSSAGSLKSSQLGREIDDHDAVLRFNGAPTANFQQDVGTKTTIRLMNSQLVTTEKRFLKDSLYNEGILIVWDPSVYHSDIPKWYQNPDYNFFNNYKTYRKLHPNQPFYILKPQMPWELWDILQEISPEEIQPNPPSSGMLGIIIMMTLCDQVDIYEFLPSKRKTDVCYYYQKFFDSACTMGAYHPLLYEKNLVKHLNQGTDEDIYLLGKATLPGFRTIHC
Nature of the assay: Sialyltransferase activity of ST6Gal 1 assayed with CD73. Conditions: for specific activity of ST6Gal 1 against acceptor: 1 mM lactosamine or 4 mM lactose as acceptor, 1 mM CMP-NeuAc, 0.1 μg CD73. The text has this:
(§1) The GDP-Fucose, UDP-Glucose, CMP-NeuAc, CMP, UDP and GDP used in the following experiments were obtained from Sigma-Aldrich (St Louis, Mo.). The recombinant human Fut7, ST6Gal1, CD73, CD39L3, non-specific alkaline phosphatase TNAP, recombinant Clostridium Difficile toxin B (TcdB) containing the glycosyltransferase domain and Malachite Green Phosphate Detection Kit were obtained from R&D Systems (Minneapolis, Minn.). The 3′-Sialyl-N-acetyllactosamine was obtained from V-LABS, Inc (Convington, La.). Unless otherwise specified, each glycosyltransferase reaction was performed in 50 μL of a buffer of 25 mM Tris, 150 mM NaCl, 5 mM MgCl2 and 5 mM MnCl2, at pH 7.5 in a 96-well plate at room temperature for 20 minutes. To determine kinetic parameters of each glycosyltransferase, multiple reactions with varied amounts of either glycosyltransferase or substrates were preceded simultaneously in the presence of fixed amounts of all other components, including a phosphatase. A well containing all components except glycosyltransferase served as a blank control for each example. The reactions were stopped by adding 30 μL of Malachite Reagent A and 100 μL of water to each well. The color was developed by adding 30 μL of Malachite Reagent B to each well followed by gently tapping on the edge and incubation for 30 minutes. The plate was then read at 620 nm with a multi-well plate reader.
Sialic acid is negatively charged under normal pH conditions, making sialyltransferases more difficult to assay than other glycosyltransferases. Because both the donor and product are likely negatively charged, separating them by common ion exchange chromatography separation is challenging. In this experiment, ST6Gal 1, a sialyltransferase, was assayed using 0.1 μg CD73 in a 96-well plate. First, enzyme curves were obtained with either 1 mM lactosamine or 4 mM lactose as the acceptor in the presence of 1 mM CMP-NeuAc. The results are shown in FIG. 7, and the specific activities against lactosamine and lactose were determined to be 458 and 41 pmol/min/μg respectively, confirming that the enzyme strongly favors lactosamine structure. The apparent Km and Vmax were determined for one substrate while fixing the other by fitting the data to KaleidaGraph 4 program.

Another assay has as its target T2, CD73 (Homo sapiens, UniProt P21589).
T2 construct: purchased R&D Systems
T2 sequence (P21589 27-549): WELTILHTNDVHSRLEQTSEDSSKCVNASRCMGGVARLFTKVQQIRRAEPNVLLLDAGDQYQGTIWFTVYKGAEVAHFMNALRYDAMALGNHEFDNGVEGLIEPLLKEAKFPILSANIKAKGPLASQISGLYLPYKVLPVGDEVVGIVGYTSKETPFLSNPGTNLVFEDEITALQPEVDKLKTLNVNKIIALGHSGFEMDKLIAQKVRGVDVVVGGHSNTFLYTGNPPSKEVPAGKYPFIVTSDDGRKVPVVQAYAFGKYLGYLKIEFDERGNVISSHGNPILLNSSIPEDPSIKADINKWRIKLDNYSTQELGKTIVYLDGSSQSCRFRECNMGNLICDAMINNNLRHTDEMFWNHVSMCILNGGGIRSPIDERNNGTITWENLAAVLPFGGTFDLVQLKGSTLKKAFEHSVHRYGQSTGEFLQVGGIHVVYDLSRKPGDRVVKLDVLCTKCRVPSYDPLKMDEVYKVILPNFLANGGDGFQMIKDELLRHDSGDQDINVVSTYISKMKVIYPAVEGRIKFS
Put plainly: Phosphate release from CMP by CD73, malachite green detection. As to conditions: 0.1 μg CD73, up to 10 nmol nucleotide, 15 minutes, room temperature.
Text: as §1, with “The reactions were stopped by adding 30 μL of Malachite Reagent A and 100 μL of water to each well. The color was developed by adding 30 μL of Malachite Reagent B to each well followed by gently tapping on the edge and incubation for 30 minutes.” left out
(§2) UDP, GDP and CMP are common donors in glycosyltransferase reactions. […] In FIG. 4C, it can be seen that TNAP, at 0.1 μg level, could only quantitatively release phosphate up to 2 nmol of nucleotide input. […]

A further assay has as its target T3, CD39L3 (Homo sapiens, UniProt O75355).
T3 construct: purchased R&D Systems
T3 sequence (O75355 1-529): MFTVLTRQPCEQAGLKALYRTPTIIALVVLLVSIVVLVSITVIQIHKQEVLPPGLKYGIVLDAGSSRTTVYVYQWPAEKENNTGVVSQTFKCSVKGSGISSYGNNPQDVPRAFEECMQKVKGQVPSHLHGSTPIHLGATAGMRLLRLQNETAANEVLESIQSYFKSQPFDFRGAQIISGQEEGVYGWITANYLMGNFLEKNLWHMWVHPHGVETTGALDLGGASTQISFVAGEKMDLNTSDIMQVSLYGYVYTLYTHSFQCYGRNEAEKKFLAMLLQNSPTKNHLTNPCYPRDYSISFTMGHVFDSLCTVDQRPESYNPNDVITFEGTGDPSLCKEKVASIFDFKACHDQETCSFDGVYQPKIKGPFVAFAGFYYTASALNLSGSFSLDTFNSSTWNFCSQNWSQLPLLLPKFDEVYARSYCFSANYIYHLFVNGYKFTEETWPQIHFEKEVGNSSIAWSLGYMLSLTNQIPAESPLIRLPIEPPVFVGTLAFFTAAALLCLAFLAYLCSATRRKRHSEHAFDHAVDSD
Put plainly: Phosphate release from UDP and GDP by CD39L3, malachite green detection. As to conditions: 0.1 μg CD39L3, up to 10 nmol nucleotide, 15 minutes, room temperature.
Text: as §1, with “The reactions were stopped by adding 30 μL of Malachite Reagent A and 100 μL of water to each well. The color was developed by adding 30 μL of Malachite Reagent B to each well followed by gently tapping on the edge and incubation for 30 minutes.” left out
as §2

In the next assay the target is T4, TNAP (Homo sapiens, UniProt P05186).
T4 construct: purchased R&D Systems
T4 sequence (P05186 18-501): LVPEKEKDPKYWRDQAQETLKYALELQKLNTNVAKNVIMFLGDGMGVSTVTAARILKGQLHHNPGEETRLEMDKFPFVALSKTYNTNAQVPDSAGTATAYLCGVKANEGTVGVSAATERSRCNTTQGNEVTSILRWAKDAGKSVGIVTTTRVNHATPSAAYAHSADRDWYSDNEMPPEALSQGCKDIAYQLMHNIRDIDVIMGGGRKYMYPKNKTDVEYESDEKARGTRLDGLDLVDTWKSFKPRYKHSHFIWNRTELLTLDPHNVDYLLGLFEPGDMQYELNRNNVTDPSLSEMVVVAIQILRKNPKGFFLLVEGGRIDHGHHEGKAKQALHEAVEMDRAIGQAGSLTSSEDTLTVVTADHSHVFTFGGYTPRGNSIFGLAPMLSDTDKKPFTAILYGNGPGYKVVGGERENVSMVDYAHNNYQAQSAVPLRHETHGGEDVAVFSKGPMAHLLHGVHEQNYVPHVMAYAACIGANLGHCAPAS
Put plainly: Phosphate release from UDP, GDP and CMP by TNAP, malachite green detection. Conditions: 1 μg TNAP, up to 10 nmol nucleotide.
Text: as §1, with “The reactions were stopped by adding 30 μL of Malachite Reagent A and 100 μL of water to each well. The color was developed by adding 30 μL of Malachite Reagent B to each well followed by gently tapping on the edge and incubation for 30 minutes.” left out
as §2

Turning to `CC(=O)N[C@H]1[C@H]([C@H](O)[C@H](O)CO)O[C@](OP(=O)(O)OC[C@H]2O[C@@H](n3ccc(N)nc3=O)[C@H](O)[C@@H]2O)(C(=O)O)C[C@@H]1O` [CMP-NeuAc, CMP-N-Acetylneuraminic acid], the “apparent Vmax” value on ST6Gal 1 (donor varied, lactosamine fixed at 1 mM) is 710 ± 16 pmol/min/µg. Moreover, at ST6Gal 1 (donor varied, lactosamine fixed at 1 mM, read-out: apparent Km), the Michaelis constant (Km) was determined as 530 ± 40 µM. As to `Nc1ccn([C@@H]2O[C@H](COP(=O)(O)O)[C@@H](O)[C@H]2O)c(=O)n1` [CMP], the “dephosphorylation of nucleotide by CD73” value on CD73 is given as “completely”. For `Nc1nc2c(ncn2[C@@H]2O[C@H](COP(=O)(O)OP(=O)(O)O)[C@@H](O)[C@H]2O)c(=O)[nH]1` [GDP], the “phosphate released from nucleotide by CD39L3” value at CD39L3 is “one”. Further, the “phosphate released from nucleotide by TNAP” value on TNAP was “about two”. As for `O=c1ccn([C@@H]2O[C@H](COP(=O)(O)OP(=O)(O)O)[C@@H](O)[C@H]2O)c(=O)[nH]1` [UDP], the “phosphate released from nucleotide by CD39L3” value at CD39L3 is on record as “one”. Moreover, the “phosphate released from nucleotide by TNAP” value at TNAP is reported as “about two”.

On to `N[C@H]1C(O)O[C@H](CO)[C@@H](O[C@@H]2O[C@H](CO)[C@H](O)[C@H](O)[C@H]2O)[C@@H]1O` (stereo partly drawn) [lactosamine], for which the “specific activity of ST6Gal 1 against acceptor” value at ST6Gal 1 was found to be 458 pmol/min/µg. On the same count and under the same terms, then `OC[C@H]1O[C@@H](O[C@H]2[C@H](O)[C@@H](O)C(O)O[C@@H]2CO)[C@H](O)[C@@H](O)[C@H]1O` (stereo partly drawn) [lactose], with 41 pmol/min/µg.

By Km is commonly meant the concentration of substrate that gives half-maximal velocity.
